Assay results reported in patent US20250228835A1, “PYRIDINYLOXYPYRIDINES AND RELATED COMPOUNDS AND THEIR USE IN TREATING MEDICAL CONDITIONS” (Rectify Pharmaceuticals, Inc., priority 2024, published 2025).

Key:
Format in all cases: cell-based
[1] = molecular target: T1, ABCA4 P1380L (Homo sapiens, UniProt P78363, P1380L); test: A4 correction dose-response assay: ABCA4 P1380L HiBit protein expression; details: HEK-293 cells stably expressing HiBit-tagged ABCA4 P1380L; 24 h treatment; top concentration 30 μM; read-out: ABCA4 P1380L EC50, Emax
T1 construct: expressed in transfected cells
In short: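 Cells transfected with HiBit-tagged human ABCA4 P1380L cDNA were treated for 24 h at 37°C with an eleven-point dilution series (top final 30 μM, 0.3% DMSO).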

[2] = molecular target: T2, ABCC6 WT (Homo sapiens, UniProt O95255); test: ABCC6 WT assay: HiBit protein expression; details: HEK-293 cells transiently expressing HiBit-tagged ABCC6 WT; 24 h treatment; top concentration 20 μM; read-out: ABCC6 WT EC50, Emax
T2 construct: expressed in transfected cells; host or cells: HEK-293 (transient, Lipofectamine 2000)
In short: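 HEK-293 cells transiently transfected with HiBit-tagged human ABCC6 WT cDNA, seeded 24 h post-transfection, treated 24 h at 37° C with ten 2-fold doses (top 20 μM final, 0.15% DMSO). HiBit lytic luminescence reports protein expression; Emax and EC50 derived.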

[3] = molecular target: T3, ABCB4 WT (Homo sapiens, UniProt P21439); test: ABCB4 WT assay: HiBit protein expression; details: HEK-293 cells stably expressing HiBit-tagged ABCB4 WT; 24 h treatment; top concentration 30 μM; read-out: ABCB4 WT EC50, Emax
T3 construct: expressed in transfected cells
In short: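 HEK-293 cells stably expressing HiBit-tagged human ABCB4 WT, treated 24 h at 37 °C with 11-dose 3-fold dilutions, top final 30 μM in 0.3% DMSO. HiBit lytic reagent luminescence read after 1 h at 25 °C; Emax and EC50 derived.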

T3 sequence (P21439 whole entry): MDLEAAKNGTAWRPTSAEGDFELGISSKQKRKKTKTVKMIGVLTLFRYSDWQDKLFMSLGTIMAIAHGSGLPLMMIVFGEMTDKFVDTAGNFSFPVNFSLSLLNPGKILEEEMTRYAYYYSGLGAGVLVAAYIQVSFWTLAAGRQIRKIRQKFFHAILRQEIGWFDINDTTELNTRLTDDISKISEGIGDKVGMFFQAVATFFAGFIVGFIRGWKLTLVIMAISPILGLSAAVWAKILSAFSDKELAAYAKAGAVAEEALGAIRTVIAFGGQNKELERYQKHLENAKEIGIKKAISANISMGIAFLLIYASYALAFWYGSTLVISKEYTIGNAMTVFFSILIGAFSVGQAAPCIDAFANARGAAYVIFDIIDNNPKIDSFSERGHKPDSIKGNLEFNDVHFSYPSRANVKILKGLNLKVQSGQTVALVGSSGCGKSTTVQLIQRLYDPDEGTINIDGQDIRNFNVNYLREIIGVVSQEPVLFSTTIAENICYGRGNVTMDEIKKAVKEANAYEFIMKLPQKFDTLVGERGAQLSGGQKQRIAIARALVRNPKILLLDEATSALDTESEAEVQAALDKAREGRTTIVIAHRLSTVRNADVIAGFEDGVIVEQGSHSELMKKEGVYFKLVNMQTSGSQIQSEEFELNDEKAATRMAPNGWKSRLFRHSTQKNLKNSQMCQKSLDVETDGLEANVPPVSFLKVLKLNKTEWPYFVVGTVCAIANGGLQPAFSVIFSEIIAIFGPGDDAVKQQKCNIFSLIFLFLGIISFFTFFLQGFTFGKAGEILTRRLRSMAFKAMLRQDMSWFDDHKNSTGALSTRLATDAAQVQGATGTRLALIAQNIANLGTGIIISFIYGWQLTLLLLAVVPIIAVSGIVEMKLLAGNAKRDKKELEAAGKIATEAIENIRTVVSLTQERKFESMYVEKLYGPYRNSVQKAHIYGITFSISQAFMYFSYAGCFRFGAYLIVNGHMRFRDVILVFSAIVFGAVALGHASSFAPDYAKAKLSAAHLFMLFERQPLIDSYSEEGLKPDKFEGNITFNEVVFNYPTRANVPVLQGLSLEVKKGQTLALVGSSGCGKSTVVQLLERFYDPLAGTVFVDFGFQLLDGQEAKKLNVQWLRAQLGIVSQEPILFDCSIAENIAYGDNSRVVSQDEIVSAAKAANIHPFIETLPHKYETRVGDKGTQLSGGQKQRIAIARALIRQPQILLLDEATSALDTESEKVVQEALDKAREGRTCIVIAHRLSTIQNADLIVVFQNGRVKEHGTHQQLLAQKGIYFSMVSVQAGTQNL
T1 sequence (P78363 whole entry P1380L): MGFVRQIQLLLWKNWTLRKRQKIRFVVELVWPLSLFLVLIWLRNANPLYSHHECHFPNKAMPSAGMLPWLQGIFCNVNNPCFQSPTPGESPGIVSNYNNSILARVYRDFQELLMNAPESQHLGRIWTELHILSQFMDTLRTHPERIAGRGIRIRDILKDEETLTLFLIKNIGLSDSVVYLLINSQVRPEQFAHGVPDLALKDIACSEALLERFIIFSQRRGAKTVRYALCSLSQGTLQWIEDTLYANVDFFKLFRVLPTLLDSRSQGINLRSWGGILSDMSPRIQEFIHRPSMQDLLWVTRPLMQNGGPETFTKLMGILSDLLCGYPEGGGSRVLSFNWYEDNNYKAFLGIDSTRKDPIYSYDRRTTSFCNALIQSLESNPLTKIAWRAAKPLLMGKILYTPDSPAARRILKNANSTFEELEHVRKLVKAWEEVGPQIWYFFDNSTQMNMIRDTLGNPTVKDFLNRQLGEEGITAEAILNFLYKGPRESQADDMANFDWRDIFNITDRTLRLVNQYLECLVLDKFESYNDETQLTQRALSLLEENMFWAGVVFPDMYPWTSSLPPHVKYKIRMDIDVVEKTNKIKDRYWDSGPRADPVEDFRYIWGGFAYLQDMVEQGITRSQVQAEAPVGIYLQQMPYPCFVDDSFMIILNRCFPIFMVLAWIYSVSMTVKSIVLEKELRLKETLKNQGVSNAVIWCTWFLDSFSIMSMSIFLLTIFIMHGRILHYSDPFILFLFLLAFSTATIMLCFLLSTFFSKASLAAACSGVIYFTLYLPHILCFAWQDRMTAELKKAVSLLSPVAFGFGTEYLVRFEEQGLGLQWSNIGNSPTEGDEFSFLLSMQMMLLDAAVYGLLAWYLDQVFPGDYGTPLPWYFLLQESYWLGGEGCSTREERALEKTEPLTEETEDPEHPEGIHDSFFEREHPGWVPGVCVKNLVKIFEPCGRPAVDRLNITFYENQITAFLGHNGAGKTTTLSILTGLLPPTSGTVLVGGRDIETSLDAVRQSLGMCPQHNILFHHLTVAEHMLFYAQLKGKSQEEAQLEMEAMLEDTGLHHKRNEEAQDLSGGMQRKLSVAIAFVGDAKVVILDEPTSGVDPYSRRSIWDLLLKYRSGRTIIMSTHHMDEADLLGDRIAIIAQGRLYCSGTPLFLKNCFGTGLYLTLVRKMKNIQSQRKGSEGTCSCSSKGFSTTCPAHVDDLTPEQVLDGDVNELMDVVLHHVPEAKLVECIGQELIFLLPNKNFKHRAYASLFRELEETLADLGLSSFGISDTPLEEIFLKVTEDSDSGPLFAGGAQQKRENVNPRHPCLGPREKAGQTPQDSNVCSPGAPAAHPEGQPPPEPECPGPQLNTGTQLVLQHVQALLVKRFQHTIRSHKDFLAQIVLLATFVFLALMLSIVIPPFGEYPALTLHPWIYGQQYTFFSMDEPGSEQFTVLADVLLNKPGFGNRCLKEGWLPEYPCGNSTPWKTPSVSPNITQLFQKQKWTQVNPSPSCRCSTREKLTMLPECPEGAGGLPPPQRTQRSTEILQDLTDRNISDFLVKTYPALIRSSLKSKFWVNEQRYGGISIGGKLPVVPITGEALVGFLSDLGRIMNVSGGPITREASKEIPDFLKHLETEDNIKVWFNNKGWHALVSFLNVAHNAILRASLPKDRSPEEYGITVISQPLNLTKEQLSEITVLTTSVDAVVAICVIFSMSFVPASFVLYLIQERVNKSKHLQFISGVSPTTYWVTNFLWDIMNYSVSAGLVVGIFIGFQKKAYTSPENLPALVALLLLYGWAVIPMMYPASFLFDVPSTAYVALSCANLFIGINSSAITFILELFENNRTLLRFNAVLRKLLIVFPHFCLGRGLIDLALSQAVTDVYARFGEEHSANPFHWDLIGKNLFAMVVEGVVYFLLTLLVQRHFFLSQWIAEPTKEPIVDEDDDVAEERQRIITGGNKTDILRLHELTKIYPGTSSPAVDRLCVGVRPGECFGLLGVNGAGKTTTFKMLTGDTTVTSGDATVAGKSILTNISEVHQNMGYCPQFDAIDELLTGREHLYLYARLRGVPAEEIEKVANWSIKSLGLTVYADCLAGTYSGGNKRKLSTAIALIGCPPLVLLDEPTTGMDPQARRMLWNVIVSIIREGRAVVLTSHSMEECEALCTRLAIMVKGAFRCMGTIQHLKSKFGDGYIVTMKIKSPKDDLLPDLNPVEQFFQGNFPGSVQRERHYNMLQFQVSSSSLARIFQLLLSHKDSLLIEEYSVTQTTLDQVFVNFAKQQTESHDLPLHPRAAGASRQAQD
T2 sequence (O95255 whole entry): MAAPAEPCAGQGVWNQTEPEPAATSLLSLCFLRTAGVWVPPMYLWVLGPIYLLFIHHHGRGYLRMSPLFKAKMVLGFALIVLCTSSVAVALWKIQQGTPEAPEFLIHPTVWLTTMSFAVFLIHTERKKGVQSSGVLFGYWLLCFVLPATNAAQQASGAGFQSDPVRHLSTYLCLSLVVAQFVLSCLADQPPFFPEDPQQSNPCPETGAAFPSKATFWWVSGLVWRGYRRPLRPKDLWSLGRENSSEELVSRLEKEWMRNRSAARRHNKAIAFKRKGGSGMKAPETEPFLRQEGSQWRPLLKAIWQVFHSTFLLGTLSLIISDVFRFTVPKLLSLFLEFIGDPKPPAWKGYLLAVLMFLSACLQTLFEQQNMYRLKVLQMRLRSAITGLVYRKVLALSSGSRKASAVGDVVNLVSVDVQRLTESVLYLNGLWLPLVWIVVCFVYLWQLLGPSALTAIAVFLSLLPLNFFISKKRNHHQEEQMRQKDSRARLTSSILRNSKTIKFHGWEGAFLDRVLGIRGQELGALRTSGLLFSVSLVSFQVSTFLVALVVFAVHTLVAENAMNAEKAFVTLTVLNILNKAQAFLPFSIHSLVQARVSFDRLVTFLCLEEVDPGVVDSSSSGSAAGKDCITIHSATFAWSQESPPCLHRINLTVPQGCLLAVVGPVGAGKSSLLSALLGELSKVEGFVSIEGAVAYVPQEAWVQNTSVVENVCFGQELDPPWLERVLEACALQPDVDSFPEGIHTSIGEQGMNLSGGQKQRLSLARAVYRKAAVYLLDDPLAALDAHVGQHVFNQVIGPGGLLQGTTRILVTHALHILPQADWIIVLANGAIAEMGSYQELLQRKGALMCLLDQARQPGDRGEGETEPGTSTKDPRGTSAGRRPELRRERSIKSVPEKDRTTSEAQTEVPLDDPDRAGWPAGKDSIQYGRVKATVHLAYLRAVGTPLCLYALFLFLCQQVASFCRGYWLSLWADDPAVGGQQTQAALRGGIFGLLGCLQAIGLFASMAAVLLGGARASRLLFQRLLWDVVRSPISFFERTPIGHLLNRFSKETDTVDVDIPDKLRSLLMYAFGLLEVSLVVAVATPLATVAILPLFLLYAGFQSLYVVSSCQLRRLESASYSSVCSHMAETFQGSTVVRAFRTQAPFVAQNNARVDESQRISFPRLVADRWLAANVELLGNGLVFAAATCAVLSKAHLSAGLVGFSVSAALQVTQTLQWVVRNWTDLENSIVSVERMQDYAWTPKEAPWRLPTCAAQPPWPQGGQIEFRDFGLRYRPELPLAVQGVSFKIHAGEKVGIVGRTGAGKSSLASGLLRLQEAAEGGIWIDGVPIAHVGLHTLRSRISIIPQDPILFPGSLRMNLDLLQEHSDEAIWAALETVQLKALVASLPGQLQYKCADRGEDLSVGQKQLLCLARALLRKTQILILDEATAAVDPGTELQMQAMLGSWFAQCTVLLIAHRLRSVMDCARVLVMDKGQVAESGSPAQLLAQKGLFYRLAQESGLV

Row | SMILES | EC50 [1] | EC50 [2] | EC50 [3]
1 | Cc1cc(C)c(Oc2nc(-c3cncc(Cl)c3)cnc2NS(C)(=O)=O)c(C)n1 [Compound I-260] | > 25000 nM | 1000 to 10000 nM | ≥ 25000 nM
2 | Cc1cc(C2CC2)nc(C)c1Oc1nc(-c2cncc(S(C)(=O)=O)c2)ccc1NS(C)(=O)=O [Compound I-263] | 1000 to 10000 nM | 1000 to 10000 nM | 1000 to 10000 nM
3 | Cc1cc(C2CC2)nc(C)c1Oc1nc(-c2cncc(C#N)c2)ccc1NS(=O)(=O)C1CC1 [Compound I-264] | < 1000 nM | ≥ 25000 nM | < 1000 nM
4 | CNS(=O)(=O)c1ccc(-c2cncc(C#N)c2)nc1Oc1c(C)cc(C)nc1C [Compound I-265] | 1000 to 10000 nM | 1000 to 10000 nM | < 1000 nM
5 | Cc1cc(C)c(Oc2nc(-c3cncc(C#N)c3)ccc2NS(=O)(=O)C2CC2)c(C)n1 [Compound I-266] | < 1000 nM | < 1000 nM | < 1000 nM
6 | Cc1cc(C)c(Oc2nc(-c3cncc(C#N)c3)ccc2NS(=O)(=O)C2COC2)c(C)c1 [Compound I-267] | < 25000 nM | < 1000 nM | < 1000 nM
7 | Cc1cc(C)c(Oc2nc(-c3cncc(C#N)c3)ccc2NS(C)(=O)=O)c(C2CC2)n1 [Compound I-268] | < 1000 nM | < 1000 nM | < 1000 nM
8 | Cc1cc(C)c(Oc2nc(-c3ccc(C#N)nc3C)ccc2NS(C)(=O)=O)c(C)n1 [Compound I-269] | 1000 to 10000 nM | 1000 to 10000 nM | < 1000 nM
9 | Cc1cc(C)c(Oc2nc(-c3cc(C#N)cnc3C)ccc2NS(C)(=O)=O)c(C)n1 [Compound I-270] | < 25000 nM | 1000 to 10000 nM | < 25000 nM
10 | Cc1cc(C2CC2)cc(C)c1Oc1nc(-c2cncc(C#N)c2)ccc1NS(C)(=O)=O [Compound I-271] | < 1000 nM | < 1000 nM | 1000 to 10000 nM
11 | Cc1cc(C)c(Oc2nc(-n3cnc(C#N)c3)ccc2N(C)S(C)(=O)=O)c(C)c1 [Compound I-272] | 1000 to 10000 nM | 1000 to 10000 nM | < 25000 nM
12 | Cc1cc(C)c(Oc2nc(-n3cnc(C#N)c3)ccc2NS(C)(=O)=O)c(C)c1 [Compound I-273] | < 25000 nM | < 1000 nM | < 25000 nM
13 | Cc1cc(C)c(Oc2nc(-n3cc(C#N)cn3)ccc2NS(C)(=O)=O)c(C)c1 [Compound I-274] | < 1000 nM | < 1000 nM | < 25000 nM
14 | Cc1cc(C)c(Oc2nc(-c3cncc(C#N)c3)cnc2NS(C)(=O)=O)c(C)c1 [Compound I-275] | < 25000 nM | < 1000 nM | ≥ 25000 nM
15 | Cc1cc(C)c(Oc2nc(-c3cncc(C#N)c3)ccc2NS(=O)(=O)C(C)C)c(C)n1 [Compound I-276] | < 1000 nM | < 1000 nM | < 1000 nM
16 | Cc1cc(C)c(Oc2nc(-c3cncc(Cl)c3)cnc2NS(C)(=O)=O)c(C)c1 [Compound I-277] | < 25000 nM | < 1000 nM | ≥ 25000 nM

Row | SMILES | EC50 [1] | EC50 [2] | EC50 [3]
17 | Cc1cc(C)c(Oc2nc(-c3cncc(S(C)(=O)=O)c3)ccc2NS(C)(=O)=O)c(C)c1 [Compound I-278] | 1000 to 10000 nM | 1000 to 10000 nM | ≥ 25000 nM
18 | Cc1cc(C)c(Oc2nc(-c3cncc(C#N)c3)ccc2S(C)(=N)=O)c(C)c1 (stereo not drawn) [Compound I-279] | < 1000 nM | < 1000 nM | < 1000 nM
19 | Cc1cc(C)c(Oc2nc(-c3cncc(C#N)c3)ccc2S(N)(=O)=O)c(C)c1 [Compound I-280] | < 1000 nM | < 1000 nM | < 1000 nM
20 | CNS(=O)(=O)c1ccc(-c2cncc(C#N)c2)nc1Oc1c(C)cc(C)cc1C [Compound I-281] | < 1000 nM | < 1000 nM | < 1000 nM
21 | Cc1cc(C)c(Oc2nc(-c3cc(Cl)cnc3C)ccc2NS(C)(=O)=O)c(C)n1 [Compound I-282] | > 25000 nM | 1000 to 10000 nM | ≥ 25000 nM
22 | Cc1cc(C)c(Oc2nc(-c3cn(C)nc3C)ccc2NS(C)(=O)=O)c(C)c1 [Compound I-283] | < 1000 nM | < 1000 nM | < 1000 nM
23 | Cc1cc(C)c(Oc2nc(-c3cncc(C#N)c3)ncc2NS(C)(=O)=O)c(C)n1 [Compound I-284] | < 25000 nM | < 1000 nM | < 1000 nM
24 | Cc1cc(C)c(Oc2nc(N3CCN(C(=O)C4CC4)CC3)ccc2S(N)(=O)=O)c(C)c1 [Compound I-285] | > 25000 nM | 1000 to 10000 nM | ≥ 25000 nM
25 | Cc1cc(C2CC2)nc(C2CC2)c1Oc1nc(-c2cncc(C#N)c2)ccc1S(=N)(=O)C1CC1 (stereo not drawn) [Compound I-317] | > 25000 nM | < 1000 nM | < 1000 nM
26 | Cc1cc(C(F)F)cc(C2CC2)c1Oc1nc(-c2cncc(C#N)c2)ccc1S(=N)(=O)C1CC1 (stereo not drawn) [Compound I-319] | > 25000 nM | < 1000 nM | 1000 to 10000 nM
27 | Cc1cc(C(F)F)nc(C2CC2)c1Oc1nc(-c2cncc(C#N)c2)ccc1S(=O)(=O)NC1CCOCC1 [Compound I-320] | < 25000 nM | 1000 to 10000 nM | < 25000 nM
28 | Cc1cc(C(F)F)nc(C2CC2)c1Oc1nc(-c2cncc(C#N)c2)ccc1S(=O)(=O)NC1COC1 [Compound I-321] | < 25000 nM | 1000 to 10000 nM | 1000 to 10000 nM
29 | Cc1cc(C2CC2)nc(C2CC2)c1Oc1nc(-c2cncc(C#N)c2)ccc1S(=O)(=O)NC1CCOCC1 [Compound I-322] | 1000 to 10000 nM | 1000 to 10000 nM | < 25000 nM
30 | Cc1cc(C)c(Oc2[nH]c(-c3cncc(C#N)c3)cc(=O)c2NS(C)(=O)=O)c(C)n1 [Compound I-325] | 1000 to 10000 nM | ≥ 25000 nM | < 25000 nM
31 | Cc1cc(C)c(Oc2nc(-c3cc(C#N)c[nH]c3=O)ccc2NS(C)(=O)=O)c(C)n1 [Compound I-326] | < 1000 nM | 1000 to 10000 nM | < 25000 nM
32 | Cc1cc(C)c(Oc2nc(-c3cncc(C#N)c3)c(O)cc2NS(C)(=O)=O)c(C)n1 [Compound I-327] | < 1000 nM | < 1000 nM | < 1000 nM
